Experiment [1] has as its target T1, Protein deacetylase HDAC6 (Homo sapiens, UniProt Q9UBN7).
T1 sequence (Q9UBN7 whole entry): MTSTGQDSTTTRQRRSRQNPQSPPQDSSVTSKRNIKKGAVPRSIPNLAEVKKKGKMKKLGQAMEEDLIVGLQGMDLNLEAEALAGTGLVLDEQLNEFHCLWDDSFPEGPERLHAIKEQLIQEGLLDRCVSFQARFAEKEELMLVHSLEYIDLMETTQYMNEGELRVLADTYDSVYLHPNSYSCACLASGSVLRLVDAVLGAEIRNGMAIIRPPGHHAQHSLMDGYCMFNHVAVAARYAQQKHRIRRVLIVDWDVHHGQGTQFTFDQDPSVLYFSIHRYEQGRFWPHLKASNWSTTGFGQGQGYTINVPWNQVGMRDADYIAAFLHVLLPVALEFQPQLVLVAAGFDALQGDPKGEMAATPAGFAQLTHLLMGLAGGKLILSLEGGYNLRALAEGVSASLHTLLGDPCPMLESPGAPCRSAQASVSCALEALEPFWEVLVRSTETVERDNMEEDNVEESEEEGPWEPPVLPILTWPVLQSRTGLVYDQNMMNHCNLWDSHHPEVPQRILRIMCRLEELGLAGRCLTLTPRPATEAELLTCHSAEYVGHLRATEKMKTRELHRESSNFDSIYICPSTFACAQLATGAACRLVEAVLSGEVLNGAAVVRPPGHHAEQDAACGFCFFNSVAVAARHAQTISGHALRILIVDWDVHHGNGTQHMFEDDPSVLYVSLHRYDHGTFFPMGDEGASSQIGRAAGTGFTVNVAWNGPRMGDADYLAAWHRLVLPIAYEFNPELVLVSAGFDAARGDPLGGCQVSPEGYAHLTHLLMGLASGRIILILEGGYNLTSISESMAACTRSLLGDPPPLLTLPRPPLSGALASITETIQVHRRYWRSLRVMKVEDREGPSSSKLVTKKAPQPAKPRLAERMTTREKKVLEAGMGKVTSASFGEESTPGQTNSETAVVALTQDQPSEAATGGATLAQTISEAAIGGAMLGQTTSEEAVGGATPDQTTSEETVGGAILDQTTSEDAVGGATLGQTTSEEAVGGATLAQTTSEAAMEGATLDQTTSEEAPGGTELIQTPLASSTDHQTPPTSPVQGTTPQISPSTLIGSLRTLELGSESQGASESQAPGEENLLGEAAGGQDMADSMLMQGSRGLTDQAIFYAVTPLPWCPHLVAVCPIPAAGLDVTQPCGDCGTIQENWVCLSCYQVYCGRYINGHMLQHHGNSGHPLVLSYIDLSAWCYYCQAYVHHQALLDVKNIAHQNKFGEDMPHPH
The experiment can be described thus: Inhibition of HDAC6.

Another experiment concerns the target Histone deacetylase 9 (Homo sapiens, UniProt Q9UKV0). The experiment can be described thus: Inhibition of HDAC9.
The next experiment concerns the target Histone deacetylase 1 (Homo sapiens, UniProt Q13547). Nature of the experiment: Inhibition of HDAC1.

For orientation: Ki means the equilibrium dissociation constant of an inhibitor or competing ligand from its target. Low values mean higher affinity, high ones lower affinity.

Sequence of Histone deacetylase 1 (Q13547 whole entry): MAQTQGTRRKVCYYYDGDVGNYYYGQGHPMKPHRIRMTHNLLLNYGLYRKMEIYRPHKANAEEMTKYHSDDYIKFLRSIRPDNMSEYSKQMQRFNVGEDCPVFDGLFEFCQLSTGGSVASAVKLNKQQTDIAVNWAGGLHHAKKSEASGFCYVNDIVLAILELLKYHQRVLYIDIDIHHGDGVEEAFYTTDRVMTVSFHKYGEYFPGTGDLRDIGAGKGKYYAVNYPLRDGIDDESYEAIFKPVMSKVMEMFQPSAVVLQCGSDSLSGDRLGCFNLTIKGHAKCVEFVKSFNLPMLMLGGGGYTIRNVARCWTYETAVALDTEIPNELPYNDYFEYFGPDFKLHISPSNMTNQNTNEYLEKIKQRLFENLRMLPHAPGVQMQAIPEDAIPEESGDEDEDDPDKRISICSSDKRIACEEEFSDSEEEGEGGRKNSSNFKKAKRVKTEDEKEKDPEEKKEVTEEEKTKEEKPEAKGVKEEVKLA
Sequence of Histone deacetylase 9 (Q9UKV0 whole entry): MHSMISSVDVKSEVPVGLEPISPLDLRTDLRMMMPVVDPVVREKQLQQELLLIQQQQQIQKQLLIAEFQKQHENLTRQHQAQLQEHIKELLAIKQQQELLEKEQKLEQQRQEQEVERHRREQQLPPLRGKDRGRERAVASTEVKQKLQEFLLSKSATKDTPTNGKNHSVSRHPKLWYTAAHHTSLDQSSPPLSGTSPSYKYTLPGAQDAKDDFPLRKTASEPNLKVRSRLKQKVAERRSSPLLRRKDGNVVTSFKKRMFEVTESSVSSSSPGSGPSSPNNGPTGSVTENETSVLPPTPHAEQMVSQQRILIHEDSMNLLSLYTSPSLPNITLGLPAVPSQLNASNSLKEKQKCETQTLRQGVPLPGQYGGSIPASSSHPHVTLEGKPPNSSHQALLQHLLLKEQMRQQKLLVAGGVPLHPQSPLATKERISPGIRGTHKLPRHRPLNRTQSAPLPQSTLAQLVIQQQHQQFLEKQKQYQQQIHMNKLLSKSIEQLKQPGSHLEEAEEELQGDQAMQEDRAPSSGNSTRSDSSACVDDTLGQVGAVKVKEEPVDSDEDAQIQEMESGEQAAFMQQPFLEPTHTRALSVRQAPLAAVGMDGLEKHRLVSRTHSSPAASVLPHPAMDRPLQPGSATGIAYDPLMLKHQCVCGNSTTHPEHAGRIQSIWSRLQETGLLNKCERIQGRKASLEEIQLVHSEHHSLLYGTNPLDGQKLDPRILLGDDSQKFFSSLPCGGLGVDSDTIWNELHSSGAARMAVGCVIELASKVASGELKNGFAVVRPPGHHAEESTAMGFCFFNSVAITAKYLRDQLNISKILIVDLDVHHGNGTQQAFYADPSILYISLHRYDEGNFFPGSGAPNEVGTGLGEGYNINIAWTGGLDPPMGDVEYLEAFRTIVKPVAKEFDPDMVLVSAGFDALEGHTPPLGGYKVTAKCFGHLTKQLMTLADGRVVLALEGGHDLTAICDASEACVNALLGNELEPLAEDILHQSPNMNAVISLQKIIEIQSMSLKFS

Regarding `O=C(CCCCCCC(=O)Nc1ccc([C@H]2O[C@@H](CSc3ccncc3)C[C@@H](c3ccccc3)O2)cc1)NO`, the results for the Ki (in experiment [1]; on Histone deacetylase 9; on Histone deacetylase 1) were 28 nM, 6100 nM and 88 nM, respectively.

The values above are taken from ChEMBL document CHEMBL1150269, “Structural origin of selectivity in class II-selective histone deacetylase inhibitors” (J Med Chem, 2008).
